Assays:
velvetleaf = assay: Test A preemergence; assay type: in vivo, Abutilon theophrasti; settings: Abutilon theophrasti, pre-emergence, 240 h, 0 to 100 scale (0 no effect, 100 complete control), read-out: Plant response rating, Velvetleaf
How it was run: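 Test chemicals in a non-phytotoxic solvent with surfactant were applied as a directed soil spray preemergence to seeds sown in loam/sand. Postemergence sprays went to plants 2–10 cm tall at the one- to two-leaf stage. A dash means no result.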

oilseed rape = assay: Test C preemergence; assay type: in vivo, Brassica napus; settings: for Plant response rating (scale of 0 to 100 where 0 is no effect and 100 is complete control): Oilseed Rape, preemergence; for Oilseed Rape plant response rating (0 to 100): Preemergence, visual rating after 13 to 15 d
From the text: Seeds of plant species selected from blackgrass (Alopecurus myosuroides), ryegrass, Italian (Italian ryegrass, Lolium multiflorum), wheat (winter wheat, Triticum aestivum), galium (catchweed bedstraw, Galium aparine), corn (Zea mays), crabgrass, large (large crabgrass, Digitaria sanguinalis), foxtail, giant, (giant foxtail, Setaria faberii), johnsongrass (Sorghum halepense), lambsquarters (Chenopodium album), morningglory (Ipomoea coccinea), nutsedge, yellow (yellow nutsedge, Cyperus esculentus), pigweed (Amaranthus retroflexus), ragweed (common ragweed, Ambrosia elatior), soybean (Glycine max), barnyardgrass (Echinochloa crus-galli), oilseed rape (Brassica napus), waterhemp (common waterhemp, Amaranthus rudis), and velvetleaf (Abutilon theophrasti) were planted into a blend of loam soil and sand and treated preemergence with test chemicals formulated in a non-phytotoxic solvent mixture which included a surfactant. At the same time, plants selected from these crop and weed species and also chickweed (common chickweed, Stellaria media), oat, wild (wild oat, Avena fatua), and kochia (Kochia scoparia), were planted in pots containing Sunshine Redi-Earth® planting medium comprising spaghnum peat moss, vermiculite, starter nutrients and dolomitic limestone and treated with postemergence applications of test chemicals formulated in the same manner. Plants ranged in height from 2 to 18 cm (1- to 4-leaf stage) for postemergence treatments. […] A dash (-) response means no test result.

bluegrass = assay: Test D preemergence; assay type: in vivo, Poa annua; settings: scale 0 to 100
From the text: (§1) Seeds of plant species selected from bluegrass (annual bluegrass, Poa annua), blackgrass (Alopecurus myosuroides), canarygrass (Phalaris minor), chickweed (common chickweed, Stellaria media), galium (catchweed bedstraw, Galium aparine), bromegrass, down (downy bromegrass, Bromus tectorum), Russian thistle (Salsola kali), field poppy (Papaver rhoeas), field violet (Viola arvensis), foxtail, green (green foxtail, Setaria viridis), deadnettle (henbit deadnettle, Lamium amplexicaule), ryegrass, Ital. (Italian ryegrass, Lolium multiflorum), kochia (Kochia scoparia), lambsquarters (Chenopodium album), oilseed rape (Brassica napus), pigweed (Amaranthus retroflexus), chamomile (scentless chamomile, Matricaria inodora), speedwell (bird's-eye speedwell, Veronica persica), barley, spring (spring barley, Hordeum vulgare), wheat, spring (spring wheat, Triticum aestivum), buckwheat, wild (wild buckwheat, Polygonum convolvulus), wild mustard (Sinapis arvensis), oat, wild (wild oat, Avena fatua), radish, wild (wild radish, Raphanus raphanistrum), […]), barley, winter (winter barley, Hordeum vulgare), and wheat, winter (winter wheat, Triticum aestivum) were planted into a silt loam soil and treated preemergence with test chemicals formulated in a non-phytotoxic solvent mixture which included a surfactant. At the same time, these species were planted in pots containing Sunshine Redi-Earth® planting medium comprising spaghnum peat moss, vermiculite, starter nutrients and dolomitic limestone and treated with postemergence applications of the test chemicals formulated in the same manner. Plants ranged in height from 2 to 18 cm (1- to 4-leaf stage). Treated plants and controls were maintained in a controlled growth environment for 14 to 21 d after which time all species were compared to controls and visually evaluated. […] A dash (-) response means no test result.

galium = assay: Test D preemergence; assay type: in vivo, Galium aparine; settings: scale 0 to 100
From the text: as §1

bromegrass, down [1] = assay: Test D preemergence; assay type: in vivo, Bromus tectorum; settings: scale 0 to 100
From the text: as §1

lambsquarters = assay: Test D preemergence; assay type: in vivo, Chenopodium album; settings: scale 0 to 100
From the text: as §1

blackgrass = assay: Test D postemergence; assay type: in vivo, Alopecurus myosuroides; settings: scale 0 to 100
From the text: as §1

canarygrass = assay: Test D postemergence; assay type: in vivo, Phalaris minor; settings: scale 0 to 100
From the text: as §1

bromegrass, down [2] = assay: Test D postemergence; assay type: in vivo, Bromus tectorum; settings: scale 0 to 100
From the text: as §1

chamomile = assay: Test D postemergence; assay type: in vivo, Matricaria inodora; settings: scale 0 to 100
From the text: as §1

wheat, spring = assay: Test D postemergence; assay type: in vivo, Triticum aestivum; settings: scale 0 to 100
From the text: as §1

wheat, winter = assay: Test D postemergence; assay type: in vivo, Triticum aestivum; settings: scale 0 to 100
From the text: as §1

buckwheat, wild = assay: Test D postemergence; assay type: in vivo, Polygonum convolvulus; settings: scale 0 to 100
From the text: as §1

CCOc1nc(-c2ccc(F)cc2)nn1Cc1ccnc(C(F)(F)F)c1 [Compound 8, 4-[[5-ethoxy-3-(4-fluorophenyl)-1H-1,2,4-triazol-1-yl]methyl]-2-(trifluoromethyl)pyridine]
10: Plant response rating: Bromegrass, Down (bromegrass, down [1]; 31 g ai/ha)
90%: pest or weed control at 500 g/ha (velvetleaf; 500 g ai/ha, approx. 10 d)
100: Plant response rating (scale of 0 to 100 where 0 is no effect and 100 is complete control) (oilseed rape; 125 g ai/ha) | Plant response rating (scale of 0 to 100 where 0 is no effect and 100 is complete control) (oilseed rape; 250 g ai/ha) | Plant response rating: Bluegrass (bluegrass; 125 g ai/ha) | Plant response rating: Bluegrass (bluegrass; 250 g ai/ha) | Plant response rating: Bromegrass, Down (bromegrass, down [1]; 125 g ai/ha) | Plant response rating: Bromegrass, Down (bromegrass, down [1]; 250 g ai/ha) | Plant response rating: Lambsquarters (lambsquarters; 62 g ai/ha) | Plant response rating: Lambsquarters (lambsquarters; 125 g ai/ha) | Plant response rating: Lambsquarters (lambsquarters; 250 g ai/ha)
45: Plant response rating: Bromegrass, Down (bromegrass, down [2]; 62 g ai/ha)
70: Plant response rating: Bluegrass (bluegrass; 31 g ai/ha) | Plant response rating: Bluegrass (bluegrass; 62 g ai/ha) | Plant response rating: Galium (galium; 250 g ai/ha) | Plant response rating: Blackgrass (blackgrass; 250 g ai/ha) | Plant response rating: Buckwheat, Wild (buckwheat, wild; 31 g ai/ha) | Plant response rating: Buckwheat, Wild (buckwheat, wild; 62 g ai/ha)
95: Oilseed Rape plant response rating (0 to 100) (oilseed rape; 31 g ai/ha) | Oilseed Rape plant response rating (0 to 100) (oilseed rape; 62 g ai/ha) | Plant response rating: Buckwheat, Wild (buckwheat, wild; 125 g ai/ha) | Plant response rating: Buckwheat, Wild (buckwheat, wild; 250 g ai/ha)
35: Plant response rating: Galium (galium; 62 g ai/ha) | Plant response rating: Bromegrass, Down (bromegrass, down [1]; 62 g ai/ha) | Plant response rating: Bromegrass, Down (bromegrass, down [2]; 31 g ai/ha) | Plant response rating: Wheat, Spring (wheat, spring; 125 g ai/ha) | Plant response rating: Wheat, Spring (wheat, spring; 250 g ai/ha) | Plant response rating: Wheat, Winter (wheat, winter; 62 g ai/ha) | Plant response rating: Wheat, Winter (wheat, winter; 125 g ai/ha) | Plant response rating: Wheat, Winter (wheat, winter; 250 g ai/ha)
70%: pest or weed control at 125 g/ha (velvetleaf; 125 g ai/ha)
75: Plant response rating: Blackgrass (blackgrass; 125 g ai/ha) | Plant response rating: Canarygrass (canarygrass; 250 g ai/ha)
60: Plant response rating: Canarygrass (canarygrass; 62 g ai/ha) | Plant response rating: Bromegrass, Down (bromegrass, down [2]; 250 g ai/ha) | Plant response rating: Chamomile (chamomile; 125 g ai/ha)
55: Plant response rating: Canarygrass (canarygrass; 31 g ai/ha) | Plant response rating: Bromegrass, Down (bromegrass, down [2]; 125 g ai/ha)
25: Plant response rating: Wheat, Spring (wheat, spring; 31 g ai/ha) | Plant response rating: Wheat, Spring (wheat, spring; 62 g ai/ha) | Plant response rating: Wheat, Winter (wheat, winter; 31 g ai/ha)
50: Plant response rating: Galium (galium; 125 g ai/ha) | Plant response rating: Blackgrass (blackgrass; 31 g ai/ha) | Plant response rating: Blackgrass (blackgrass; 62 g ai/ha) | Plant response rating: Chamomile (chamomile; 31 g ai/ha) | Plant response rating: Chamomile (chamomile; 62 g ai/ha)
65: Plant response rating: Canarygrass (canarygrass; 125 g ai/ha) | Plant response rating: Chamomile (chamomile; 250 g ai/ha)
